In publication PMC4269415, “Replication Attempt: “Effect of BMAP-28 Antimicrobial Peptides on Leishmania Major Promastigote and Amastigote Growth: Role of Leishmanolysin in Parasite Survival”” (PLoS ONE, 2014):
“And” between values parts separate entries of the source, which are not always exact repeats. Identical values can stand only once. Like-named read-outs stand apart in the source and are kept apart here. Square brackets hold non-standard residues; d marks the D form. Ends that are not written are not given here. Peptide text beside a SMILES is read from it.

Tests used:
[1] = test system: Leishmania major promastigotes; test: Promastigote viability assay of the original study (Fig. 1A of Lynn et al.); type: cell-based; conditions: from data of ref Lynn et al. [5]
[2] = test system: Leishmania major promastigotes; conditions: 4 h, % of untreated control, determined from bar graph Fig. 1A, ref Lynn et al. [5], cited from earlier work
Experimental: Table 1 Promastigote viability assay of Leishmania major when treated with 0.5 µM or 2 µM BMAP-28 variants. | column: % Viability (mean) || This study describes an attempt to replicate experiments from the paper “Effect of BMAP-28 Antimicrobial Peptides on Leishmania major Promastigote and Amastigote Growth: Role of Leishmanolysin in Parasite Survival,” which was submitted to the Reproducibility Initiative for independent validation. The cathelicidin bovine myeloid antimicrobial peptide 28 (BMAP-28) and its isomers were previously shown to have potent antiparasitic activity against Leishmania major.

[3] = test system: Leishmania major promastigotes (strain MHOM/SN/74/SD); type: cell-based; conditions: for % Viability (mean), replication: % of untreated control, calculated from the dose response curve; for % Viability (mean), combined original and replication: meta-analysis combining original and replication studies; for d Effect Size (Cohen's d), combined: original and replication combined
Experimental: The promastigote viability assays were conducted by the Anti-Infectives Screening Core Facility at New York University School of Medicine (https://www.scienceexchange.com/facilities/anti-infectives-screening-and-insectary-core-facilities-nyu). All assays were performed by investigators blinded to the reagents under study. 500 µM stocks of peptides were made by resuspending 4 mg of each peptide (M.W. 3131.92) in 2.554 mL of distilled sterile water. Each peptide was tested in triplicate three independent times at 50 µM, 25 µM, 12.5 µM, 6.25 µM, 3.125 µM, 1.5625 µM, 0.78125 µM, and 0.390625 µM. L. major strain MHOM/SN/74/SD (ATCC, PRA-384) was used in these studies. These cells were routinely cultured at 26°C in M-199 medium (Gibco, Grand Island, NY), supplemented with 10% heat inactivated fetal calf serum (Hyclone, Logan) and Pen/Strep (Gibco, Grand Island, NY). Mid-log phase promastigotes at concentrations of 5×10^6 per well were seeded in 96-well tissue culture plates. Heat-killed parasites, prepared by incubation at 99°C for 30 minutes, served as positive controls for the viability assays. Peptides were incubated with the cells for 4 hours at 26°C. A 20 µL volume of PrestoBlue (Life Technologies, Carlsbad, CA) was added to each well and incubated at 37°C for 3 hours. Fluorescence at excitation 530 nm and 590 nm emission wavelengths was measured using a plate reader (VICTOR, Perkin Elmer, US). Background fluorescence from media alone controls was subtracted from each reading and promastigote viability was expressed as a percentage of the untreated control.
An independent-samples t-test was conducted to compare promastigote viability in peptide treated and untreated conditions. A Fisher combined probability test was used to combine the original and replication studies values into a single combined study value for each peptide and peptide concentration. To provide a standardized measure of the effect we used cohen's d.

[4] = test system: mammalian epithelial cells and monocytes; conditions: cited from earlier work
[5] = 0.5 µM peptide, 4 h, three biological replicates
[6] = 2 µM peptide, 4 h, three biological replicates

Compound | d Effect Size (Cohen's d), original study ([1]; 0.5 µM peptide vs untreated) | d Effect Size (Cohen's d), original study ([1]; 2 µM peptide vs untreated) | % Viability (mean), original study ([2]; 0.5 µM peptide) [%] | % Viability (mean), original study ([2]; 2 µM peptide) | % Viability (mean), replication [3, 5] [%] | % Viability (mean), combined original and replication ([3]; 0.5 µM peptide) | d Effect Size (Cohen's d), combined ([3]; 2 µM peptide vs untreated) | % Viability (mean), replication [3, 6] [%] | IC50 ([3]; 4 h) [µM] | IC90 ([3]; 4 h) [µM] | toxicity to mammalian epithelial cells and monocytes (in words) [4] | d Effect Size (Cohen's d), replication ([3]; 0.5 µM peptide vs untreated) | d Effect Size (Cohen's d), combined ([3]; 0.5 µM peptide vs untreated) | d Effect Size (Cohen's d), replication ([3]; 2 µM peptide vs untreated) | % Viability (mean), combined original and replication ([3]; 2 µM peptide) [%] | IC50 ([3]; 4 h at 26°C, PrestoBlue fluorescence, dose-response 0.39-50 µM, three biological replicates in triplicate, read-out: IC50, promastigote viability) [µM] | IC90 ([3]; 4 h at 26°C, PrestoBlue fluorescence, dose-response 0.39-50 µM, three biological replicates, read-out: IC90, promastigote viability) [µM]
CC[C@@H](C)[C@@H](NC(=O)[C@H]1CCCN1C(=O)CNC(=O)[C@@H](Cc1ccc(O)cc1)NC(=O)[C@@H](CCCCN)NC(=O)[C@@H](CCCCN)NC(=O)[C@@H](Cc1c[nH]c2ccccc12)NC(=O)[C@@H](C)NC(=O)[C@@H](CCCNC(=N)N)NC(=O)[C@@H](CC(C)C)NC(=O)[C@H](NC(=O)[C@@H](CCCCN)NC(=O)[C@@H](CCCNC(=N)N)NC(=O)CNC(=O)[C@@H](CC(C)C)NC(=O)[C@@H](CO)NC(=O)[C@@H](CCCNC(=N)N)NC(=O)[C@@H](CC(C)C)NC(=O)CNC(=O)CN)[C@H](C)CC)C(=O)N[C@@H](C(=O)N[C@@H](C(=O)N1CCC[C@@H]1C(=O)N[C@@H](C(=O)N[C@@H](C(=O)N[C@H](CCCNC(=N)N)C(=O)N[C@@H](C(=O)NCC(=O)O)[C@H](C)CC)[C@H](C)CC)[C@H](C)CC)C(C)C)[C@H](C)CC [D-BMAP-28] (H-GG[dL][dR][dS][dL]G[dR][dK][dI][dL][dR][dA][dW][dK][dK][dY]G[dP][dI][dI][dV][dP][dI][dI][dR][dI]G-OH; N-terminus assumed) | 2.55 | 37.8 | 68.75 | 6% and 5.50% | 92.40 | not significantly modified | 16.67 | 73.26 | 3.55 | 9.85 | – | – | – | – | – | – | –
CC[C@@H](C)[C@@H](NC(=O)CN)C(=O)N[C@H](CCCNC(=N)N)C(=O)N[C@@H](C(=O)N[C@@H](C(=O)N1CCC[C@@H]1C(=O)N[C@@H](C(=O)N[C@@H](C(=O)N[C@@H](C(=O)N1CCC[C@@H]1C(=O)NCC(=O)N[C@H](Cc1ccc(O)cc1)C(=O)N[C@H](CCCCN)C(=O)N[C@H](CCCCN)C(=O)N[C@H](Cc1c[nH]c2ccccc12)C(=O)N[C@H](C)C(=O)N[C@H](CCCNC(=N)N)C(=O)N[C@H](CC(C)C)C(=O)N[C@@H](C(=O)N[C@H](CCCCN)C(=O)N[C@H](CCCNC(=N)N)C(=O)NCC(=O)N[C@H](CC(C)C)C(=O)N[C@H](CO)C(=O)N[C@H](CCCNC(=N)N)C(=O)N[C@H](CC(C)C)C(=O)NCC(=O)NCC(=O)O)[C@H](C)CC)[C@H](C)CC)[C@H](C)CC)C(C)C)[C@H](C)CC)[C@H](C)CC [RI-BMAP-28] (H-G[dI][dR][dI][dI][dP][dV][dI][dI][dP]G[dY][dK][dK][dW][dA][dR][dL][dI][dK][dR]G[dL][dS][dR][dL]GG-OH; N-terminus assumed) | −1.20 | 6.88 | 103.00 | 18% and 17.50% | 94.64 | not significantly modified | 6.31 | 76.64 | 4.55 | 20 | limited toxicity | – | – | – | – | – | –
GGLRSLGRKILRAWKKYGPIIVPIIRI-NH2 [L-BMAP-28-NH2, amidated L-BMAP-28 peptide] | – | – | – | – | 95.55 | 99.40% | 2.65 | 94.15 | – | – | – | 0.62 | 0.11 | 0.81 | 75.45 | 5.83 | 10.2
GGLRSLGRKILRAWKKYGPIIVPIIRIG [L-BMAP-28] | – | – | – | – | – | – | – | – | 17.1 | 25.2 | – | – | – | – | – | – | –
